Reference: publication PMC4232301 (Organic & biomolecular chemistry, 2012)

Biological target: [KS6AT6] (DEBS module 6 ketosynthase-acyltransferase didomain) (Saccharopolyspora erythraea, UniProt Q03133)
Assay: LC-MS of tryptic digest, methylmalonyl transfer to holo-ACP2
Assay type: biochemical
Details: acyl acceptor purified holo-ACP2; AT domain; 30 min

[KS6AT6] (DEBS module 6 ketosynthase-acyltransferase didomain), sequence (Q03133 1475-2340 limits assumed): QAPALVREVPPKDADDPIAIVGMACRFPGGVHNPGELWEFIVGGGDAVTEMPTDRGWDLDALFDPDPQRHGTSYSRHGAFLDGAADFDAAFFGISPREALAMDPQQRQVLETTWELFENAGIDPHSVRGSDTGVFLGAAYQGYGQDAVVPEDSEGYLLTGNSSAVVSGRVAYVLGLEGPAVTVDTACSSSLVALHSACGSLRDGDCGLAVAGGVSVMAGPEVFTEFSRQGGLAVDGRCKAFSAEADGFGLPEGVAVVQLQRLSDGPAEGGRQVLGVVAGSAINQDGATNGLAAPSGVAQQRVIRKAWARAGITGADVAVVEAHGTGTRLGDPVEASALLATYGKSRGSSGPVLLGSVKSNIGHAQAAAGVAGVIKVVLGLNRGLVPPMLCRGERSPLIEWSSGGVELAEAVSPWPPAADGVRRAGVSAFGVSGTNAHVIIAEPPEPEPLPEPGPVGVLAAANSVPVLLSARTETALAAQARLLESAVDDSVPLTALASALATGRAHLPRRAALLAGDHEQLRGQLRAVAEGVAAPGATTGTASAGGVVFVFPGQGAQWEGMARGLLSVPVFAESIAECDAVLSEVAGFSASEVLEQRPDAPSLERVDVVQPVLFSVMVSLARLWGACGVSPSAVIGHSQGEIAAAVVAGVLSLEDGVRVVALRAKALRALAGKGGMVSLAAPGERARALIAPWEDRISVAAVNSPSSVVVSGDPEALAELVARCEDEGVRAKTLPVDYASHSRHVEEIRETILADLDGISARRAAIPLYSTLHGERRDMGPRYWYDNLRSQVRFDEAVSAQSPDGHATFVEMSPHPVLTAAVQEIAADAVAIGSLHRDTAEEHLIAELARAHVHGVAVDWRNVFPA

CC(C(=O)O)C(=O)SCCNC(=O)CCNC(=O)[C@H](O)C(C)(C)COP(=O)(O)OP(=O)(O)OC[C@H]1O[C@@H](n2cnc3c(N)ncnc32)[C@H](O)[C@@H]1OP(=O)(O)O (stereo partly shown) [methylmalonyl-CoA]
LC-MS of tryptic digest, methylmalonyl transfer to holo-ACP2: purified ACP remains competent for AT-ACP methylmalonate transfer
